Laboratory results: patent US12023335B2, “Method for treating pancreatic cancer” (PTC THERAPEUTICS, INC., priority 2018, dated 2024)
Entries after “also recorded” stand apart in the source; their conditions may differ.

Key:
[1] = tested on: Aspc1 cells; assay: Aspc1 cell viability over time (AlamarBlue proliferation curves); type: cell-based, human; conditions: 0.1 μM or 1.0 μM, relative to vehicle (FIG. 1a)
Experimental: For proliferation curves, cells were plated in 96-well plates (Corning, 3603) and allowed to seed overnight. Replicate plates were plated for each time point since viability measurements were an endpoint procedure. The following day, cells were treated with Compound at indicated concentrations and treated with DMSO at the highest used concentration (always below 0.003%). Cells were treated for 96 hours, and viability was determined every 24 hours using AlamarBlue reagent (BioRad, BUF012B). Briefly, 10 μL of AlamarBlue was added to each well (100 μL), mixed briefly, and allowed to incubate at 37° C. and 5% CO2 for 4 hours. Following incubation, fluorescence was measured on a Promega multimode microplate reader. For analysis, background levels were subtracted from raw results, which were then normalized to be represented as a fold change compared to DMSO-treated cells on Day 0. All assays were carried out in at least triplicate with 4-8 technical replicates per treatment group, per experiment. (FIG. 1a and FIG. 10b)

[2] = Plasma pharmacokinetic time course in mice after a single oral dose; type: in vivo; conditions: single oral dose 10 mg/kg (FIG. 4a)
Experimental: Blood plasma and tissue samples to be used for analysis were immediately frozen on dry ice and stored at −80° C. until analysis. Concentrations of Compound 1 in samples were quantified using high-performance liquid chromatography with tandem mass spectrometry (LC-MS/MS). Compound 1 and its internal standard (deuterated Compound 1) were recovered by protein precipitation extraction from samples.
For the plasma pharmacokinetic time course study, a standard curve was made to cover concentrations between 0.001 ug/mL and 3.0 μg/mL. The lower limit of quantification (LLOQ) for Compound 1 (either version) in plasma was 0.001 μg/mL. (FIG. 4a)

[3] = biological target: T1, P-glycoprotein (Homo sapiens, UniProt P08183); assay: P-glycoprotein substrate activity experiment (CC50 ratio MDCK-P-gp vs MDCK-WT); type: in vitro ADME; conditions: 72 hours, CellTiter-Glo (FIG. 4b)
T1 construct: host or cells: MDCKII-mdr1 (canine kidney MDCKII cells; MDCKII-wt as control)
Experimental: MDCKII-mdr1 and MDCKII-wt cells were purchased from the Netherlands Cancer Institute, NKI-AVL. The cells were cultivated in Dulbecco's modified essential medium (DMEM), supplemented with 10% FBS and 1% Penn-Strep, and used between passage 3-9. Cells were seeded at a density of 3×10^3 cells/well in 96-well tissue culture treated plates. After 4 hours to allow cells to attach, cells were treated with test compound in the presence or absence of the P-glycoprotein inhibitor Valspodar. The plates were incubated at 37° C., 5% CO2 for 72 hours and ATP was measured vialuminescence using CellTiter-Glo® reagent (Promega). (FIG. 4b)

[4] = tested on: J1002VEH and J1002TAM cells; assay: Cell cycle analysis of J1002VEH and J1002TAM cells; type: cell-based, mouse
Experimental: Cells were seeded into 12-well or 6-well plates such that 16 hours later they would be approximately 30-50% confluent. Cells were then treated for 24 hours with either DMSO (<0.003%), Compound 1 (100 nM or 1 μM), or 100 nM nocodazole (Sigma, M1404). Following treatment, cells were harvested and fixed in ice-cold 70% ethanol for a minimum of one hour. Following fixation, cells were re-suspended in PBS+2% FBS+3 μM DAPI (BioLegend, 422801) or 0.25 μg 7-AAD (BD Pharmingen, 559925), and analyzed on a MACSQuant® Analyzer 10 (Miltenyi Biotec) or BD LSR II™. For cell cycle analysis time course experiments, cells were prepared as described above, except treated for 24, 48, or 72 hours. Data was analyzed using FlowJo software. Percent populations in G2/M were identified using the univariate cell cycle platform offered by FlowJo software. Percent populations >4N were determined by gating above the 4N population of DMSO-treated cells. (FIG. 1b, FIG. 1c, FIG. 2a, FIG. 2b, FIG. 10e, and FIG. 10g)

[5] = tested on: tubulin; assay: Analysis of free tubulin content in Aspc1 cells (fractionation, western blot); type: cell-based, human; conditions: 3.0 μM, 2 hours, relative to vehicle, COL and TAX (FIGS. 11a, 11b)
Experimental: Western blotting was carried out on lysates isolated from treated cells. Cells were lysed using RIPA buffer (50 mM Tris, pH 7.4, 150 mM NaCl, 1% Nonidet P-40, 0.1% SDS, 0.5% deoxycholate) supplemented with cOmplete™ EDTA-free Protease Inhibitor Cocktail (Sigma, 11836170001) and Halt™ Phosphatase Inhibitor Cocktail (ThermoFisher, 78420). Lysates were quantified using the Pierce BCA Protein Assay Kit (ThermoFisher, 23227), diluted in SDS sample buffer, resolved by SDS-PAGE (15-30 μg/sample), and transferred onto PVDF membranes. Membranes were blocked with 5% w/v nonfat dry milk in TBS-T (0.1% Tween20) and primary antibodies were incubated overnight at 4° C., diluted in 5% BSA in TBS-T at the indicated concentrations. HRP-conjugated secondary antibodies were incubated in blocking buffer for 1 hour at room temperature before detection using Super Digital-ECL™ substrate solution (Kindle Biosciences, R1002). (FIG. 5b, FIG. 10a and FIG. 11b)
Free heterodimer tubulin was separated from tubulin incorporated into microtubules according to manufacturer's recommendations using the Microtubule/Tubulin In Vivo Assay Biochem Kit (Cytoskeleton, #BK038). Cells were seeded in 12-well plates such that ˜16 hours later they would be approximately 50-60% confluent. […]

T1 sequence (P08183 whole entry): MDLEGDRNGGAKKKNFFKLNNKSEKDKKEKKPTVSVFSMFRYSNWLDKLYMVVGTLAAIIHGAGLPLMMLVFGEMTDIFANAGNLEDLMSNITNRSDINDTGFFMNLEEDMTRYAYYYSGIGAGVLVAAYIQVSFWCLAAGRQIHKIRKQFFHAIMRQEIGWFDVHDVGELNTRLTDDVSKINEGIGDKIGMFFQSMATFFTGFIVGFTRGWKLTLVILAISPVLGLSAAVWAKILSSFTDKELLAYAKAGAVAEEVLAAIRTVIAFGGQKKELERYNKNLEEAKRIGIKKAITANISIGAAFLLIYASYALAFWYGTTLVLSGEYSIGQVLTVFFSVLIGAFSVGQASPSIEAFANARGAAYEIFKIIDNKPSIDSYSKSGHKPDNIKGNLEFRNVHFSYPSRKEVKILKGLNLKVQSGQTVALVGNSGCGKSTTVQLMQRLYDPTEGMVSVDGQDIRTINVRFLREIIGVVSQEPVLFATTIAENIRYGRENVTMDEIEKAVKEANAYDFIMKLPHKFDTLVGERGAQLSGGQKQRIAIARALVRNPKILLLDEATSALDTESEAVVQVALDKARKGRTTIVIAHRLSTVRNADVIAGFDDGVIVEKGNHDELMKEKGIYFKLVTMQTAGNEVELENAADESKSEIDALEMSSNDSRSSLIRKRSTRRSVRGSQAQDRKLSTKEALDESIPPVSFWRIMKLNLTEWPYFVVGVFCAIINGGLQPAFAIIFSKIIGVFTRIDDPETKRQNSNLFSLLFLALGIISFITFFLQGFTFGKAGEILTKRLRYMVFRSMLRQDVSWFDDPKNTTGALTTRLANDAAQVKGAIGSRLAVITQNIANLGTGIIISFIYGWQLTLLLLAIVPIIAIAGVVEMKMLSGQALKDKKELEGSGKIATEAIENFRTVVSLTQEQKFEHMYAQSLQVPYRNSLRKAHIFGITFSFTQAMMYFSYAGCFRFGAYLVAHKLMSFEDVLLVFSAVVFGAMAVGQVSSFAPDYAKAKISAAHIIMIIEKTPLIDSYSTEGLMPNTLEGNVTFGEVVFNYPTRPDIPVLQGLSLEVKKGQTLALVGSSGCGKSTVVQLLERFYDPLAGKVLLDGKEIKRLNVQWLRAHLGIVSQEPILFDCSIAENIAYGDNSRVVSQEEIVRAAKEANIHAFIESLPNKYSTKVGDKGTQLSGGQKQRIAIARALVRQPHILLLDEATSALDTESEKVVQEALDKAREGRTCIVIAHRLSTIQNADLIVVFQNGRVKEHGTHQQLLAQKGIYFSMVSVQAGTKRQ

Cc1nc2ccc(F)cc2n1-c1nc(N)c(F)c(Nc2ccc(C(F)(F)F)cc2)n1 [Compound 1, 5-fluoro-2-(6-fluoro-2-methyl-1H-benzo[d]imidazol-1-yl)-N4-[4-(trifluoromethyl)phenyl]pyrimidine-4,6-diamine]
relative Aspc1 cell viability over time [1]: dose and time-dependent decrease in human PDA cell viability
CNS penetration / brain distribution [2]: penetrates the CNS and distributes into brain tissues
plasma / circulating half-life ([2]; 10 mg/kg): long circulating half-life; also recorded: long plasma half-life
PGP substrate activity (ratio of CC50 values MDCK-P-gp vs MDCK-WT) [3]: lack of P-glycoprotein (PGP) substrate activity; also recorded: do not function as a PGP substrate
cell cycle distribution / polyploidy of J1002VEH and J1002TAM cells ([4]; 1.0 μM, 24 hours (FIGS. 10d-10g)): dose and time-dependent increase in the amount of BMI-1 dependent cells affected by polyploidy
BMI-1 hyperphosphorylation (conclusion from FIG. 10 data as a whole) ([4]; data taken as a whole): induces BMI-1 hyperphosphorylation indirectly as a result of mitotic arrest
free tubulin vs microtubules in cell lysate fractions [5]: significant fold-change increase in prevention of tubulin formation
